Measured values: the NIST ThermoML archive (doi:10.1016/j.fluid.2008.03.012)

Details: 101.33 kPa, Liquid

CCOC(=O)CC(C)=O [ethyl 3-oxobutanoate]
Details	mass density [kg/m3]
278.15 K	1043.1
288.15 K	1034.5
298.15 K	1023.5
313.15 K	1008
328.15 K	992.1
338.15 K	981.9
348.15 K	971.4
